The record followed here is the supplement of paper PMC10307832.

Assay in all cases: relative viability (nuclei count vs DMSO), 5 days (fraction); higher = more cells survive
Compound in the experiment “R406 + Crizotinib”: COc1cc(Nc2ncc(F)c(Nc3ccc4c(n3)NC(=O)C(C)(C)O4)n2)cc(OC)c1OC [R406] + C[C@@H](Oc1cc(-c2cnn(C3CCNCC3)c2)cnc1N)c1c(Cl)ccc(F)c1Cl [Crizotinib] (partner 1 µM)
In outline:
(§1)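 Relative viability was taken as the ratio of nuclei in treated wells to nuclei in vehicle wells. Lung cancer cell lines in 1536-well plates received compounds by pin tool one day after seeding, either one drug alone or a fixed anchor-drug dose plus five library-drug doses (not always all listed) in √10 steps. Nuclei were counted on 4× images after 5 days of treatment, and values are medians of duplicate plates.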

Compound in the experiment “Daporinad + Luminespib”: O=C(/C=C/c1cccnc1)NCCCCC1CCN(C(=O)c2ccccc2)CC1 [Daporinad] + CCNC(=O)c1noc(-c2cc(C(C)C)c(O)cc2O)c1-c1ccc(CN2CCOCC2)cc1 [Luminespib] (partner 0.01 µM)
In outline:
as §1

Compound in the experiment “R406 + Pemetrexed”: COc1cc(Nc2ncc(F)c(Nc3ccc4c(n3)NC(=O)C(C)(C)O4)n2)cc(OC)c1OC [R406] + Nc1nc2[nH]cc(CCc3ccc(C(=O)N[C@@H](CCC(=O)O)C(=O)O)cc3)c2c(=O)[nH]1 [Pemetrexed] (partner 0.2 µM)
In outline:
as §1

Compound in the experiment “R406 + Dasatinib”: COc1cc(Nc2ncc(F)c(Nc3ccc4c(n3)NC(=O)C(C)(C)O4)n2)cc(OC)c1OC [R406] + Cc1nc(Nc2ncc(C(=O)Nc3c(C)cccc3Cl)s2)cc(N2CCN(CCO)CC2)n1 [Dasatinib] (partner 0.075 µM)
In outline: as §1

On to UMC-11, for which the relative viability with R406 + Crizotinib (first compound 0.08 µM) amounted to 0.628; in the experiment with R406 + Crizotinib (first compound 0.253 µM), 0.88; with R406 + Crizotinib (first compound 0.8 µM), 0.663; with R406 + Crizotinib (first compound 2.53 µM) it was 0.392; with R406 + Crizotinib (first compound 8 µM), 0.119; in the experiment with Daporinad + Luminespib (first compound 0.0005 µM) it was 1.09. Also, the relative viability came out at 1.04 in the experiment with Daporinad + Luminespib (first compound 0.001581 µM); 1.26 with Daporinad + Luminespib (first compound 0.005 µM); 1.16 with Daporinad + Luminespib (first compound 0.01581 µM); 0.764 in the experiment with R406 + Pemetrexed (first compound 0.08 µM); 0.808 with R406 + Pemetrexed (first compound 0.253 µM); 0.889 with R406 + Pemetrexed (first compound 0.8 µM). Moreover, the relative viability with R406 + Pemetrexed (first compound 2.53 µM) was 0.609; with R406 + Pemetrexed (first compound 8 µM), 0.304; with R406 + Dasatinib (first compound 0.08 µM), 0.466; with R406 + Dasatinib (first compound 0.253 µM), 0.572; with R406 + Dasatinib (first compound 0.8 µM) it was 0.519; in the experiment with R406 + Dasatinib (first compound 2.53 µM), 0.459. In addition, in the experiment with R406 + Dasatinib (first compound 8 µM), the relative viability is 0.342.
